From the supplement of paper PMC4862054

Columns and labels:
Settings in all cases: incubation time: 72 h
CAL-120 [1] = assay: normalised response (% of control), CellTox Green; higher = less cell death (100 = DMSO, 0 = benzethonium chloride kill control)
Method in brief: (§1)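 Plates were normalised with 0.1 % DMSO as 100 and a positive kill control as 0. Breast cancer cell lines in 20 µl suspension had been seeded into 384-well plates with compound at 5 concentrations in 10-fold steps over a compound-specific 10,000-fold range, incubated 72 h, and read for CellTox Green fluorescence (485/520 nm) followed by CellTiter-Glo luminescence. Each value is the normalised signal at a single concentration.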

CAL-85-1 [2] = assay: as above
Method in brief: as §1

MDA-MB-468 [3] = assay: as above
Method in brief: as §1

CAL-148 [4] = assay: as above
Method in brief: as §1

CAL-51 [5] = assay: as above
Method in brief: as §1

HCC1599 [6] = assay: as above
Method in brief: as §1

HCC1143 [7] = assay: as above
Method in brief: as §1

HCC1937 [8] = assay: as above
Method in brief: as §1

MCF-10A [9] = assay: as above
Method in brief: as §1

MDA-MB-231 [10] = assay: as above
Method in brief: as §1

BT-474 [11] = assay: as above
Method in brief: as §1

HDQ-P1 [12] = assay: as above
Method in brief: as §1

DU-4475 [13] = assay: as above
Method in brief: as §1

BT-549 [14] = assay: as above
Method in brief: as §1

MDA-MB-436 [15] = assay: as above
Method in brief: as §1

MDA-MB-453 [16] = assay: as above
Method in brief: as §1

MFM-223 [17] = assay: as above
Method in brief: as §1

CAL-120 [18] = assay: normalised response (% of control), CellTiter-Glo; higher = more viable cells (100 = DMSO, 0 = benzethonium chloride kill control)
Method in brief: as §1

CAL-85-1 [19] = assay: as above
Method in brief: as §1

MDA-MB-468 [20] = assay: as above
Method in brief: as §1

CAL-148 [21] = assay: as above
Method in brief: as §1

CAL-51 [22] = assay: as above
Method in brief: as §1

HCC1599 [23] = assay: as above
Method in brief: as §1

HCC1143 [24] = assay: as above
Method in brief: as §1

HCC1937 [25] = assay: as above
Method in brief: as §1

MCF-10A [26] = assay: as above
Method in brief: as §1

SK-BR-3 = assay: as above
Method in brief: as §1

MDA-MB-231 [27] = assay: as above
Method in brief: as §1

Hs578T [28] = assay: as above
Method in brief: as §1

BT-474 [29] = assay: as above
Method in brief: as §1

HDQ-P1 [30] = assay: as above
Method in brief: as §1

DU-4475 [31] = assay: as above
Method in brief: as §1

BT-549 [32] = assay: as above
Method in brief: as §1

MDA-MB-436 [33] = assay: as above
Method in brief: as §1

MDA-MB-453 [34] = assay: as above
Method in brief: as §1

MFM-223 [35] = assay: as above
Method in brief: as §1

Hs578T [36] = assay: normalised response (% of control), CellTox Green; higher = less cell death (100 = DMSO, 0 = benzethonium chloride kill control)
Method in brief: as §1

| SMILES | normalised response (CAL-120 [1]) | normalised response (CAL-85-1 [2]) | normalised response (MDA-MB-468 [3]) | normalised response (CAL-148 [4]) | normalised response (CAL-51 [5]) | normalised response (HCC1599 [6]) | normalised response (HCC1143 [7]) | normalised response (HCC1937 [8]) | normalised response (MCF-10A [9]) | normalised response (MDA-MB-231 [10]) | normalised response (BT-474 [11]) | normalised response (HDQ-P1 [12]) | normalised response (DU-4475 [13]) | normalised response (BT-549 [14]) | normalised response (MDA-MB-436 [15]) | normalised response (MDA-MB-453 [16]) | normalised response (MFM-223 [17]) | normalised response (CAL-120 [18]) | normalised response (CAL-85-1 [19]) | normalised response (MDA-MB-468 [20]) | normalised response (CAL-148 [21]) | normalised response (CAL-51 [22]) | normalised response (HCC1599 [23]) | normalised response (HCC1143 [24]) | normalised response (HCC1937 [25]) | normalised response (MCF-10A [26]) | normalised response (SK-BR-3) | normalised response (MDA-MB-231 [27]) | normalised response (Hs578T [28]) | normalised response (BT-474 [29]) | normalised response (HDQ-P1 [30]) | normalised response (DU-4475 [31]) | normalised response (BT-549 [32]) | normalised response (MDA-MB-436 [33]) | normalised response (MDA-MB-453 [34]) | normalised response (MFM-223 [35]) | normalised response (Hs578T [36]) |
| --- | --- | --- | --- | --- | --- | --- | --- | --- | --- | --- | --- | --- | --- | --- | --- | --- | --- | --- | --- | --- | --- | --- | --- | --- | --- | --- | --- | --- | --- | --- | --- | --- | --- | --- | --- | --- | --- |
| CC(C)(C)c1nc(-c2cccc(NS(=O)(=O)c3c(F)cccc3F)c2F)c(-c2ccnc(N)n2)s1 [Dabrafenib] (250 nM) | -30.1% | 110% | 117% | 106% | 110% | 100% | 111% | 106% | 94.2% | 107% | 99.1% | 114% | 83% | 82.7% | 101% | 105% | 103% | 36.6% | 99.8% | 92% | 101% | 129% | 107% | 106% | 105% | 125% | 105% | 106% | 90.8% | 97.9% | 115% | 8.24% | 91% | 106% | 92.3% | 107% | – |
| CN[C@@H](C)C(=O)N[C@H]1CN(C(=O)CC(C)C)CC[C@H]2CC[C@@H](C(=O)NC(c3ccccc3)c3ccccc3)N2C1=O [AT-406] (10 nM) | – | – | – | – | – | – | – | – | – | – | – | – | – | – | – | – | – | 96.7% | 97.8% | 103% | 109% | 126% | 99.7% | 95.5% | 104% | 105% | 110% | 95.5% | 99.5% | 94.3% | 102% | 99.9% | 66.1% | 97.5% | 89.3% | 105% | – |
| CC1(COc2ccc3c(c2)ncn3-c2ccc3cccc(N4CCC(N)CC4)c3n2)COC1 [Crenolanib] (1000 nM) | 99.5% | 104% | – | 97.7% | 85.9% | 94.7% | 99% | 51.6% | 108% | 124% | 91.4% | 71% | 101% | 71.2% | 50.8% | 112% | 100% | 86.7% | 117% | 101% | 109% | 86.2% | 110% | 101% | 100% | 113% | 123% | 122% | 96.4% | 111% | 108% | 96.2% | 82.5% | 103% | 114% | 102% | 83.4% |
| CC(C)n1cnc2c(NCCc3ccc(O)cc3)nc(-c3csc4ccccc34)nc21 [StemRegenin 1] (1 nM) | – | – | – | – | – | – | – | – | – | – | – | – | – | – | – | – | – | 96.6% | 99.2% | 92.6% | 98.7% | 81.3% | 99.6% | 98.1% | 98.6% | 106% | 108% | 99.7% | 104% | 102% | 103% | 102% | 96.7% | 105% | 115% | 103% | – |
| CC1(C)CCC(c2ccc(Cl)cc2)=C(CN2CCN(c3ccc(C(=O)NS(=O)(=O)c4ccc(N[C@H](CCN5CCOCC5)CSc5ccccc5)c(S(=O)(=O)C(F)(F)F)c4)cc3)CC2)C1 [Navitoclax] (10 nM) | – | – | – | – | – | – | – | – | – | – | – | – | – | – | – | – | – | 91.7% | 97% | 87.6% | 90% | 115% | 103% | 95.9% | 101% | 98.6% | 77.3% | 98.1% | 99.7% | 94.5% | 87.5% | 99.4% | 99.5% | 98% | 100% | 96.7% | – |
| CCN(CC)CCCC(C)Nc1ccnc2cc(Cl)ccc12 (stereo not drawn) [Chloroquine] (10 nM) | – | – | – | – | – | – | – | – | – | – | – | – | – | – | – | – | – | 103% | 99.8% | 95.2% | 89.2% | 126% | 90.9% | 104% | 95.3% | 101% | 92.5% | 101% | 104% | 96.5% | 99% | 92.2% | 107% | 113% | 103% | 96.7% | – |
